Legend:
Assay type in all cases: cell-based, Human
[1] = system: p53 pathway genes in BxPC-3 cells; test: RNA sequencing / GSEA in BxPC-3 cells; details: 3 µM, 4 h
A549-p53^Y220C cells [2] = test: SA-β-galactosidase senescence stain; details: 3 µM, 6-day treatment
A549-p53^Y220C cells [3] = test: Apoptosis FACS; details: 3 µM

For `Cc1sc2c(c1C)C(c1ccc(Cl)cc1)=N[C@@H](CC(=O)OC(C)(C)C)c1nnc(C)n1-2` [JQ1], the “share of the top 116 p53 target genes with significantly increased expression” value [1] was 57.0%, the “SA-β-gal senescence staining (in words)” value (A549-p53^Y220C cells [2]) was “relatively few senescent cells” and the “apoptosis induction (in words)” value (A549-p53^Y220C cells [3]) was “slightly less apoptosis”.

`CCn1c2ccc(CNCCOCCOCCOCCn3cc(COc4ccc(CCc5nc6cc(-c7c(C)noc7C)ccc6n5CCN5CCOCC5)cc4F)nn3)cc2c2ccc(-c3cc(C)cs3)cc21` [MS78] was tested, and the “share of the top 116 p53 target genes with significantly increased expression” value [1] was 22.8%.

— paper PMC13342671 (Nature Communications, 2026)
